Columns and labels:
c-kit mutant D816V = c-kit mutant D816V (Homo sapiens (Human), UniProt P10721, D816V/DEL694-753); assay: c-Kit mutant D816V biochemical assay (AlphaScreen); details: c-kit D816V biochemical inhibitory activity
Procedure: The c-kit mutant D816V (or kinase domain thereof) is an active kinase in AlphaScreen. IC50 values are determined with respect to inhibition of c-Kit mutant D816V kinase activity, where inhibition of phosphorylation of a peptide substrate is measured as a function of compound concentration. Compounds to be tested were dissolved in DMSO to a concentration of 20 mM. These were diluted 30 μl into 120 μl of DMSO (4 mM) and 1 μl was added to an assay plate. These were then serially diluted 1:3 (50 μl to 100 μl DMSO) for a total of 8 points. Plates were prepared such that each kinase reaction is 20 μl in 1× kinase buffer (25 mM HEPES, pH 7.2, 8 mM MgCl2, 2 mM MnCl2, 50 mM NaCl, 0.01% Brij, 1 mM DTT, 0.01% BSA), 5% DMSO and 10 μM ATP. Substrate was 30 nM biotin-(E4Y)10 (EMD Millipore, Cat#12-440). C-kit mutant D816V kinase was at 0.75 ng per sample. After incubation of the kinase reaction for 30 minutes at room temperature, 5 μl of donor beads (Streptavidin coated beads (Perkin Elmer Life Science) final concentration 7.5 μg/ml) in stop buffer (25 mM Hepes pH 7.5, 100 mM EDTA, 0.01% BSA) was added, the sample was mixed and incubated for 20 minutes at room temperature before adding 5 μl of acceptor beads (PY20 coated beads (Perkin Elmer Life Science) final concentration 7.5 ug/ml) in stop buffer. The samples were incubated for 60 minutes at room temperature and the signal per well was read on EnVision reader. Phosphorylated substrate results in binding of the PY20 antibody and association of the donor and acceptor beads such that signal correlates with kinase activity. The signal vs. compound concentration was used to determine the IC50.
Recombinant c-kit mutant D816V (residues 551-934, kinase insertion domain residues 694-753 deleted) with a 6x-histidine N-terminal tag was expressed in E. coli Arctic Express (DE3) RIL (Stratagene). Cells were grown in Terrific Broth (TB) media to an OD600 of 0.6 at 37° C. at which temperature was reduced to 10° C., protein was induced with 1.0 mM IPTG for 18 hours and harvested by centrifugation at 8000×g for 20 minutes. Cells were re-suspended in 0.1M KPO4 pH 8.0, 250 mM NaCl, 10% Glycerol, 0.75% NP-40, 25 mM Imidazole, 5 mM BME with 0.2 mg/ml Lysosyme, 2.0 mM PMSF, 25 μg/ml DNAse I, incubated in ice for 30 minutes and lyzed with a cell disruptor (MicroFluidics). The lysate was clarified by centrifugation at 20,000×g for 2 hours. The protein was captured with Talon resin (Clontech). Contaminating proteins were washed off with 25 mM Tris-HCl pH 8.3, 250 mM NaCl, 15% Glycerol, 1% Triton X-100, and protein eluted using 100 mM EDTA. The protein was further purified using Gel Filtration column 26/600 Superdex 200 (GE) in 50 mM Tris-HCl, pH 8.0, 250 mM NaCl, 15% Glycerol, 5 mM BME. The protein was aliquoted and flash-frozen in liquid Nitrogen.

[1] = tested on: BaF3-FL KIT D816V or BaF3-FL KIT V560G/D816V cell line; assay: Cell-based assays of c-Kit mutant kinase activity (cell growth, ATPlite); details: at least one of the c-kit cell assays of Example 26
Method in brief: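 BaF3 cells dependent on full-length human KIT (D816V or V560G/D816V) seeded at 1×10^4 cells/well in RPMI with 10% FBS. Eight-point 1:3 dilutions from 10 μM top final (0.2% DMSO), 3 days at 37° C., 5% CO2. ATPlite luminescence gave IC50.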

Sequence of c-kit mutant D816V (P10721 other isoform, or with tags, fused parts or gaps D816V/del 694-753): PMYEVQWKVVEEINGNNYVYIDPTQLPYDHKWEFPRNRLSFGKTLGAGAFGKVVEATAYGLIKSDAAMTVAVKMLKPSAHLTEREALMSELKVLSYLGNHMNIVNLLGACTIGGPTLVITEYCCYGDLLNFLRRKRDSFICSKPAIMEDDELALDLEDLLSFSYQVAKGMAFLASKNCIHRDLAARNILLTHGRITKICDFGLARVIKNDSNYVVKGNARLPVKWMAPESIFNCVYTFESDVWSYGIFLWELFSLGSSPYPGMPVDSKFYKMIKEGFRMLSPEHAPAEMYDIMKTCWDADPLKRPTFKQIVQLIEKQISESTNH

Structure (SMILES)	IC50 (c-kit mutant D816V)	IC50 [1]
Cc1n[nH]c(C(=O)Nc2cnc3[nH]c(-c4ccc(Cl)cc4)cc3c2)c1C [P-2122, N-[2-(4-chlorophenyl)-1H-pyrrolo[2,3-b]pyridin-5-yl]-3,4-dimethyl-1H-pyrazole-5-carboxamide]	0.0001 to 1 µM	< 10000 nM
COc1ccc(-c2cc3cc(NC(=O)c4[nH]nc(C)c4C)cnc3[nH]2)c(F)c1 [P-2076, N-[2-(2-fluoro-4-methoxy-phenyl)-1H-pyrrolo[2,3-b]pyridin-5-yl]-3,4-dimethyl-1H-pyrazole-5-carboxamide]	0.0001 to 1 µM	< 10000 nM
Cc1n[nH]c(C(=O)Nc2cnc3[nH]c(-c4cccc(OCCN5CCOCC5)c4)cc3c2)c1C [P-2066, 3,4-dimethyl-N-[2-[3-(2-morpholinoethoxy)phenyl]-1H-pyrrolo[2,3-b]pyridin-5-yl]-1H-pyrazole-5-carboxamide]	0.0001 to 1 µM	< 10000 nM
Cc1n[nH]c(C(=O)Nc2cnc3[nH]nc(-c4ccc(F)cc4)c3c2)c1C [P-2041, N-(3-(4-fluorophenyl)-1H-pyrazolo[3,4-b]pyridin-5-yl)-3,4-dimethyl-1H-pyrazole-5-carboxamide]	0.0001 to 1 µM	< 10000 nM
Cc1n[nH]c(C(=O)Nc2cnc3[nH]c(-c4cc(OC(F)(F)F)ccc4Cl)cc3c2)c1C [P-2113, N-[2-[2-chloro-5-(trifluoromethoxy)phenyl]-1H-pyrrolo[2,3-b]pyridin-5-yl]-3,4-dimethyl-1H-pyrazole-5-carboxamide]	1 to 10 µM	< 10000 nM
Cc1n[nH]c(C(=O)Nc2cnc3[nH]c(-c4cnc(C(C)C)nc4)cc3c2)c1C [P-2154, N-[2-(2-isopropylpyrimidin-5-yl)-1H-pyrrolo[2,3-b]pyridin-5-yl]-3,4-dimethyl-1H-pyrazole-5-carboxamide]	0.0001 to 1 µM	< 10000 nM
CNS(=O)(=O)c1cccc(-c2cc3cc(NC(=O)c4[nH]nc(C)c4C)cnc3[nH]2)c1 [P-2121, 3,4-dimethyl-N-[2-[3-(methylsulfamoyl)phenyl]-1H-pyrrolo[2,3-b]pyridin-5-yl]-1H-pyrazole-5-carboxamide]	0.0001 to 1 µM	< 10000 nM
Cc1cc(C#N)ccc1-c1cc2cc(NC(=O)c3[nH]nc(C)c3C)cnc2[nH]1 [P-2161, N-[2-(4-cyano-2-methyl-phenyl)-1H-pyrrolo[2,3-b]pyridin-5-yl]-3,4-dimethyl-1H-pyrazole-5-carboxamide]	0.0001 to 1 µM	< 10000 nM
Cc1n[nH]c(C(=O)Nc2cnc3[nH]c(-c4cnc(N5CCOCC5)nc4)cc3c2)c1C [P-2158, 3,4-dimethyl-N-[2-(2-morpholinopyrimidin-5-yl)-1H-pyrrolo[2,3-b]pyridin-5-yl]-1H-pyrazole-5-carboxamide]	0.0001 to 1 µM	< 10000 nM
Cc1n[nH]c(C(=O)Nc2cnc3[nH]c(-c4ccc(C#N)c(N5CCCC5)c4)cc3c2)c1C [P-2120, N-[2-(4-cyano-3-pyrrolidin-1-yl-phenyl)-1H-pyrrolo[2,3-b]pyridin-5-yl]-3,4-dimethyl-1H-pyrazole-5-carboxamide]	0.0001 to 1 µM	< 10000 nM
Cc1n[nH]c(C(=O)Nc2cnc3[nH]c(-c4cnc(C5CC5)nc4)cc3c2)c1C [P-2155, N-[2-(2-cyclopropylpyrimidin-5-yl)-1H-pyrrolo[2,3-b]pyridin-5-yl]-3,4-dimethyl-1H-pyrazole-5-carboxamide]	0.0001 to 1 µM	< 10000 nM
COc1ccc(Cl)c(-c2cc3cc(NC(=O)c4[nH]nc(C)c4C)cnc3[nH]2)c1 [P-2077, N-[2-(2-chloro-5-methoxy-phenyl)-1H-pyrrolo[2,3-b]pyridin-5-yl]-3,4-dimethyl-1H-pyrazole-5-carboxamide]	1 to 10 µM	< 10000 nM
Cc1n[nH]c(C(=O)Nc2cnc3[nH]c(-c4ccccc4)nc3c2)c1Cl [P-2150, 4-chloro-3-methyl-N-(2-phenyl-3H-imidazo[4,5-b]pyridin-6-yl)-1H-pyrazole-5-carboxamide]	0.0001 to 1 µM	< 10000 nM
Cc1n[nH]c(C(=O)Nc2cnc3[nH]c(-c4ccnc(C(=O)NC5CC5)c4)cc3c2)c1C [P-2175, N-cyclopropyl-4-[5-[(3,4-dimethyl-1H-pyrazole-5-carbonyl)amino]-1H-pyrrolo[2,3-b]pyridin-2-yl]pyridine-2-carboxamide]	0.0001 to 1 µM	< 10000 nM
COc1ccc(-c2cc3cc(NC(=O)c4[nH]nc(C)c4C)cnc3[nH]2)c(Cl)c1 [P-2075, N-[2-(2-chloro-4-methoxy-phenyl)-1H-pyrrolo[2,3-b]pyridin-5-yl]-3,4-dimethyl-1H-pyrazole-5-carboxamide]	0.0001 to 1 µM	< 10000 nM
Cc1nc(F)ccc1-c1cc2cc(NC(=O)c3[nH]nc(C)c3C)cnc2[nH]1 [P-2283, N-[2-(6-fluoro-2-methyl-3-pyridyl)-1H-pyrrolo[2,3-b]pyridin-5-yl]-3,4-dimethyl-1H-pyrazole-5-carboxamide]	0.0001 to 1 µM	< 10000 nM
CCc1cc(C(=O)Nc2cnc3[nH]c(-c4ccc(F)cc4)cc3c2)[nH]n1 [P-2159, 3-ethyl-N-[2-(4-fluorophenyl)-1H-pyrrolo[2,3-b]pyridin-5-yl]-1H-pyrazole-5-carboxamide]	0.0001 to 1 µM	< 10000 nM
Cc1cc(C(=O)Nc2cnc3[nH]c(-c4ccccc4)nc3c2)[nH]n1 [P-2151, 3-methyl-N-(2-phenyl-3H-imidazo[4,5-b]pyridin-6-yl)-1H-pyrazole-5-carboxamide]	1 to 10 µM	< 10000 nM
Cc1cc2ncc(NC(=O)c3n[nH]c(C)c3C)cn2n1 [P-2114, 4,5-dimethyl-N-(2-methylpyrazolo[1,5-a]pyrimidin-6-yl)-1H-pyrazole-3-carboxamide]	1 to 10 µM	< 10000 nM
O=C(Nc1cnc2[nH]c(I)cc2c1)c1cccc2n[nH]cc12 [P-2288, N-(2-iodo-1H-pyrrolo[2,3-b]pyridin-5-yl)-2H-indazole-4-carboxamide]	1 to 10 µM	< 10000 nM
Cc1n[nH]c(C(=O)Nc2cnc3[nH]c(-c4ccc(OCC5(C)COC5)cc4)cc3c2)c1C [P-2149, 3,4-dimethyl-N-[2-[4-[(3-methyloxetan-3-yl)methoxy]phenyl]-1H-pyrrolo[2,3-b]pyridin-5-yl]-1H-pyrazole-5-carboxamide]	0.0001 to 1 µM	< 10000 nM
